Measurements reported in patent US8097585B2, “Methods of treating inflammation by administration of heme oxygenase-1 and products of heme degradation” (priority 2002, dated 2012).

Assays:
[1] = test system: DBA/2 islets in diabetic B6AF1 recipients; experiment: Allogeneic islet transplantation, graft survival and tolerance test; assay type: in vivo, mice
Method: Animals. Male DBA/2, B6AF1 and DBA/1 mice 6-8 week of age (Jackson) are used in the experiments. Mice were kept for 2 weeks at 4 mice/cage and fed normal laboratory chow before using for the experiment.
Treatment protocol. Recipients were rendered diabetic using streptozotocin (STZ, 225 mg/kg). Five days after STZ administration, animals with two consecutive blood glucose levels exceeding 350 mg/dl are used as recipients. Islets (500) are transplanted under the kidney capsule of the recipients.
Reagents. Cobalt protoporphyrin (CoPPIX, Porphyrin Products, Logan, Utah), biliverdin dihydrochloride and bilirubin (ICN Biomedicals Inc., OH) were dissolved in a small amount of 0.2 M NaOH, subsequently adjusted to a pH of 7.4 with 1 M HCl, and diluted in 1×PBS. The stock solutions (CoPPIX=2 mg/ml, biliverdin=3.2 mg/ml, bilirubin=0.5 mg/ml) were aliquoted and kept at −70° C. until used. Light exposure was limited as much as possible.
Induction of HO-1/Administration of biliverdin/bilirubin. When given to the donor, CoPPIX (20 mg/kg) was given 24 hours before islet isolation to induce HO-1 expression. To verify HO-1 expression in different organs after CoPP treatment, tissue samples are collected 24 hours after treatment and snap frozen in liquid nitrogen. Immunohistological analysis of HO-1 expression is performed using an anti-HO-1 antibody. CoPPIX (20 mg/kg) was administrated to the recipient intraperitoneally (i.p.) on day-1, 1, 3, 5 and 7. Biliverdin (50 μmol/kg) or bilirubin (8.5 μmol/kg) was given intraperitoneally to the donor one hour before islet isolation. For the recipient, biliverdin (50 μmol/kg) or bilirubin ([…]) was administered intraperitoneally either daily or twice per day from day-1 until day 13. No further treatment was given afterwards.
Measurement of Glucose level. Glucose levels were tested twice weekly after transplantation. Glucose levels of <200 mg/dl were considered normoglycemic. Grafts were considered rejected when two consecutive glucose levels were >300 mg/dl.
Tolerance test. The first graft was removed from a number of animals that had islets surviving long-term (longer than 100 days) by doing a nephrectomy. Islets syngeneic with the original donor were transplanted under the contralateral kidney capsule without further treatment. If those second transplanted islets also survived longer than 100 days without further treatment, the recipients were considered tolerant.

[2] = test system: HO-1; experiment: HO activity assay on spleen and heart of treated mice; assay type: in vivo, DBA/2J mice; details: 5 mg/kg i.p., one day after treatment
Method: HO activity assay. DBA/2J mice were given either no treatment or CoPPIX or ZnPPIX at a dose of 5 mg/kg, i.p. (n=10 per group). One day after the treatment, the animals were sacrificed, the spleen and the heart were excised, and tissue samples were frozen at −80° C. Frozen tissue samples were homogenized in ice-cold sucrose and Tris-HCl buffer. The microsomal pellet was obtained after centrifugation and re-suspended in MgCl2-potassium phosphate buffer. Sample protein was then incubated with the reaction mixture containing rat liver cytosol, hemin, glucose-6-phosphate, glucose-6-phosphate dehydrogenase and NADPH (Sigma-Aldrich Corporation, St. Louis, Mo.) for 60 minutes at 37° C. The generated bilirubin was measured by reacting with diazotized surfanilic acid to yield azobilirubin using spectrophotometer.

[3] = test system: DSS-colitis; experiment: DSS-colitis (acute colitis) mouse model: weight loss, DAI, symptoms, crypt score; assay type: in vivo, C57BL/6 mice
Description: Animals. Pathogen-free male C57BL/6 mice, 4-6 weeks of age (Taconic; C57BL/6×129 svj strain) were used in this example. Mice were kept for one week at 4 mice/cage and fed normal laboratory chow and drinking water ad libitum prior to the experiments. All mice weighed between 22.5 g and 27.7 g at the beginning of the trial. The animal experimentation protocol was reviewed and approved by the Animal Care and Use Committees of the Beth Israel Deaconess Medical Center.
Induction of Colitis. Colitis was induced by feeding mice 5% (wt/v) dextran sodium sulfate (DSS) (MW 40,000; ICN Biomedicals Inc., OH), dissolved in distilled water, for a period of 7 days. The resulting condition was termed “DSS-colitis.” Control animals were fed distilled water ad libitum. The mortality rate in the control group and the CO-treated group was 10% (2/20) and 14% (2/14), respectively. These animals were excluded from the statistical analysis. In the other groups, no mortality occurred during 7 days of 5% DSS treatment.
Experimental Reagents and Treatment Protocol. Cobalt protoporphyrin (CoPPIX), zinc protoporphyrin (ZnPPIX, Porphyrin Products, Logan, Utah) and biliverdin dihydrochloride (ICN Biomedicals Inc., OH) were dissolved in a small amount 0.2 M NaOH, subsequently adjusted to a pH of 7.4 with 1 M HCl, and diluted in 0.9% NaCl. The stock solutions (CoPPIX and ZnPPIX=1 mg/ml, biliverdin=10 mM) were aliquoted and kept at −70° C. until used. Light exposure was limited as much as possible. CoPPIX (5 mg/kg), ZnPPIX (20 mg/kg) and biliverdin (50 μmol/kg) were administered to the mice intraperitoneally (i.p.) 24 hours before induction of DSS-colitis and daily thereafter. Desferoxamine (DFO) was prepared in imidazole buffer (50 mM imidazole, 220 mM NaCl, pH 7.4). DFO was injected subcutaneously (s.c.) twice daily (125 mg/kg) or infused i.p. (130 mg/kg/day; pumping rate 0.5 μl/hour for 8 days) by miniosmotic Alzet™ pumps (Alza Corporation, Palo Alto, Calif.) (Postma et al., Exp. Parasitol. 89(3):323-30 1998). The pumps were installed i.p. 24 hours before induction of colitis. When animals were sacrificed at day 7 of DSS treatment, the pumps were removed and evaluated to determine if DFO application had taken place.
CO gas was administrated exogenously by putting animals in a CO exposure chamber (Otterbein et al., Nat. Med. 6(4):422-8, 2000). Briefly, CO at a concentration of 1% (10,000 parts per million (ppm)) in compressed air was mixed with balanced air (21% oxygen) in a stainless steel mixing cylinder before entering the exposure chamber. CO concentrations were controlled by varying the flow rates of CO in a mixing cylinder before delivery to the chamber. Because the flow rate is primarily determined by the O2 flow, only the CO flow was changed to deliver the final concentration to the exposure chamber. A CO analyzer (Interscan Corporation, Chatsworth, Calif.) was used to measure CO levels continuously in the chamber. Mice were placed in the chamber 24 hours before the induction of the colitis and were kept in the exposure chamber during the whole period of the experiment (total of 8 days). […] Animals were removed daily from the chamber to assess weight and stool.
Evaluation of Symptoms of Colitis. All animals were evaluated clinically on a daily basis. The evaluation of each animal included a measurement of weight, hemoccult positivity and examination of stool for the presence of gross blood and stool consistency. The disease activity index (DAI) was calculated by scoring percent weight loss, intestinal bleeding (no blood; occult blood=hemoccult+; gross blood) and stool consistency (normal stool=well-formed pellets; loose stool=pasty and semiformed stools; diarrhea=liquid stool that stuck to the anus) (Table 1).
The animals were sacrificed, and the whole colon from the colo-cecal junction to the anal verge was removed and gently cleaned of stool. […]

[4] = test system: recipient splenocytes; experiment: Mixed lymphocyte culture with splenocytes of treated cardiac allograft recipients; assay type: in vivo, mice; details: harvested 5 days after cardiac transplantation, 72 hours culture with DBA/2 splenocytes; compared to controls
Method: Mixed lymphocyte culture (MLC). Irradiated (25Gy, ^137Cs) DBA/2 splenocytes (5×10^5/well) were co-cultured with responders (5×10^5/well) in a 96 well round bottom plates for 3 days at 37° C., 95% air with 5% CO2. When using cells from cardiac recipients as responders, the co-culture period was 3 days without any further in vitro treatment. ^3H-thymidine (1 μCi/well) was added 16 hours before termination of cell culture, and ^3H-thymidine incorporation was measured.
Induction of HO-1 expression or biliverdin administration suppresses the T cell mediated alloimmune response in vivo. […] Recipient splenocytes harvested 5 days after cardiac transplantation were used as responder cells in an in vitro culture with DBA/2 splenocytes as feeder cells. Proliferation was measured at 72 hours (FIG. 9).

[5] = test system: DBA/2 cardiac allografts in B6AF1 recipients; experiment: Heterotopic cardiac allograft transplantation, graft survival; assay type: in vivo, mice
Method: Animals. Male DBA/2 (H-2^d), B6AF1 (H-2^k/d,b) and FVB (H-2^q) mice were purchased from Jackson Lab. Inc. (Bar Harbor, Me.). They were maintained in the institutional specific-pathogen free facility, which has an appropriate light cycle with free access to water and chow ad libitum, and used for experiments at age of 6-10 weeks.
Cardiac transplantation. DBA2/J and B6AF1 mice were used as donor and recipient, respectively. Heterotopic heart transplantation was carried out according to the procedure of Corry and Russell (Corry et al., Transplant Proc. 5(1):733-5, 1973). […] Secondary heart grafting into the neck was performed using a cuff technique as described previously (Matsuura et al., Transplantation 51(4):896-8, 1991). Briefly, the heart graft was harvested from either DBA2/J (donor strain) or FVB (third-party strain) mice. The right jugular vein and the right common carotid artery of recipient were dissected, and a cuff (polyethylene or polyimide) was connected to these vessels. The graft aorta and pulmonary artery were sleeved over the cuff on the recipient's common carotid artery and the jugular vein, respectively, and fixed with a ligature. After transplantation, beating of the graft was monitored by daily palpation, and scored +1 to +4 according to the strength of graft contractions. Graft rejection was defined as cessation of beating, and was confirmed by direct inspection followed by histological examination.
Donor and recipient mice were treated either with CoPPIX (5 mg/kg/day), ZnPPIX (5 mg/kg/day) or biliverdin (administered once, twice or three times per day at a dose of 50 μmol/kg/dose). All reagents were administered by intraperitoneal (i.p.) injection. Donor animals were treated for 2 days, starting from 2 days before graft harvest (day-2 and day-1). Treatment of recipient mice was initiated one day before transplantation, and continued until 13 days post-transplant (day-1 to day 13). For the experiments using donor splenocyte infusion (DSI) on day-7 (DSI (D-7)), treatments of recipient animals (either with CoPPIX or ZnPPIX) started from day-8 and were terminated on day 6. Recipients received no further treatment. Spleen cells (2×10^7) isolated from DBA/2J mice as described herein were used for DSI treatment. The cells were injected via the penile vein with 200 μl of 0.9% saline solution.
Statistics. Cardiac graft survival was plotted by the Kaplan-Meier method, and a log-rank test was applied to compare statistical significance. Expression levels of HO-1/α-actin protein are expressed as mean±standard deviation. Other data are expressed as mean±standard error of the mean (mean±SEM). Intergroup statistical analysis was performed by one-way ANOVA, and Fisher's PSLD was used for a post-hoc test. A comparison was considered statistically significant when the p-value was <0.05.

C=CC1=C(C)/C(=C/c2[nH]c(Cc3[nH]c(/C=C4\NC(=O)C(C)=C4C=C)c(C)c3CCC(=O)O)c(CCC(=O)O)c2C)NC1=O [bilirubin]
long-term survival of islets ([1]; 2 dose per day (every twelve hours)): 100%
long-term survival of islets ([1]; single dose per day to donor and recipient): 50%

C=CC1=C(C)c2cc3[n-]c(cc4nc(cc5[n-]c(cc1n2)c(C)c5C=C)C(C)=C4CCC(=O)O)c(CCC(=O)O)c3C.[Zn+2] [ZnPP, zinc protoporphyrin]
HO-1 enzymatic activity [2]: this was not the case
effect on natural course of DSS colitis ([3]; ZnPPIX 20 mg/kg i.p. daily, compared to untreated animals): no significant changes
proliferation of recipient splenocytes [4]: did not
graft prolongation effect ([5]; ZnPPIX plus DSI (D0), compared to control or DSI (D0) alone): no significant graft prolongation effect
allografts with long-term survival ([5]; ZnPPIX plus DSI (D-7)): 0/9
graft MST ([5]; ZnPPIX plus DSI (D-7)): 13 days
graft median survival time (MST) ([5]; one dose per day i.p. (ZnPPIX 5 mg/kg; biliverdin 50 μmol/kg), untreated 11.5 days): 11 days

CC(=O)N(O)CCCCCNC(=O)CCC(=O)N(O)CCCCCNC(=O)CCC(=O)N(O)CCCCCN [DFO, Desferoxamine]
protective effect on DSS-colitis ([3]; intraperitoneal osmotic pumps, 130 mg/kg/d): no protective effect was observed
protective effect on DSS-colitis ([3]; subcutaneous injections of 125 mg/kg twice daily): no protective effect
